Columns and labels:
HDAC 10 = molecular target: T1, HDAC 10 (Homo sapiens, UniProt Q969S8); experiment: HDAC 10 inhibition (Reaction Biology, 10-dose IC50)
T1 sequence (Q969S8 1-669): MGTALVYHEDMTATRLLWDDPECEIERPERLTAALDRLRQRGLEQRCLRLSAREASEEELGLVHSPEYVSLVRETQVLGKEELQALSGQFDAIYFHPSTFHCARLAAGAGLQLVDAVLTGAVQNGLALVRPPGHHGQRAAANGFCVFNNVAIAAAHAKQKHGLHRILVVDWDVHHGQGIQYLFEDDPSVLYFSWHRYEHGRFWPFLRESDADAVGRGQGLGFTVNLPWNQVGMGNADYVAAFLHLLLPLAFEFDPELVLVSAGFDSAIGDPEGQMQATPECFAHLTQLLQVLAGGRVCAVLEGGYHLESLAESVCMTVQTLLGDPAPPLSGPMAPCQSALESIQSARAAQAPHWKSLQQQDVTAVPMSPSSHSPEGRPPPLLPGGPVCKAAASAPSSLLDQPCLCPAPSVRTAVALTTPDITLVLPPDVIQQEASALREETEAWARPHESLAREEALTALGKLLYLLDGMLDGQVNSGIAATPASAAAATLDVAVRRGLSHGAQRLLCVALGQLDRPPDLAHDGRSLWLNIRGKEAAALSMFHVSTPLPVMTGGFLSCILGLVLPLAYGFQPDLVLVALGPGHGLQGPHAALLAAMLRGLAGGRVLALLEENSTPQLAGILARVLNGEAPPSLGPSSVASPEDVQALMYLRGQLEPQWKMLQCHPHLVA

[1] = test system: CYP24A1 in SK-MEL-28 cells; experiment: CYP24A1 induction (RT-qPCR), extended dose–response in SK-MEL-28 cells; conditions: SK-MEL-28 cells, 10 μM
VDR = test system: VDR; design: method as in earlier work; conditions: efficacious and well-tolerated dose; ref (ref); cited from earlier work
[2] = test system: VDR target genes in B16-F10 cells; experiment: RT-qPCR of selected VDR target genes (RNaseq validation); assay type: cell-based, mouse; conditions: B16-F10, 24 h, compared with other treatments
Source text: The enhanced response of B16–F10 cells to AC-340 likely reflects the VDR hyperagonist activity observed in Cyp24a1 induction assay (Figure A). […] In 49 of 50 cases, AC-340 superinduced their expression, often several fold (Figure C), consistent with AC-340 being a broad hyperagonist of 1,25D-induced genes.
RNAseq data validation by RT-qPCR of selected VDR target genes in B16-F10
Fig. S4. Validation of the RNAseq data by RT-qPCR.

B16–F10 cells = experiment: RNaseq gene expression profiling; assay type: cell-based, mouse; conditions: 10 μM, 24 h
Method: AC-340 superinduced CYP24A1 expression in all cell lines tested, and ZG-126 appeared to be a hyperagonist in SK-MEL-28 cells. […] AC-340 treatment produced 3 times more differentially expressed genes (DEGs) than AM-193, with ZG-126 producing an intermediate number (Figure A). […] The varying effects of each treatment on the numbers of regulated genes and the fold changes observed are reflected in plots of log-fold changes and volcano plots (Figure S3B).
A quality control was performed before sequencing in paired-end at 50 M reads by Illumina NovaSeq 6000 S4 PE100. After sequencing, the FASTQ files were sent to us and all downstream analysis were performed on Galaxy (Galaxy (usegalaxy.org)). First, trimmomatic tool was used to remove the adapters from the reads. Then, using the alignment tool, HISAT2, the reads were mapped to the mouse genome. In the next step, the counted reads were annotated and finally the list of differentially expressed genes (DEGs) for each treatment was obtained using the preinstalled R package called Limma.

[3] = test system: Cyp24a1 gene in B16–F10 melanoma cells; experiment: Cyp24a1 gene induction (RT-qPCR) as test of VDR agonism; assay type: cell-based, mouse; conditions: hybrids 10 μM, 1,25D and SAHA 100 nM, 24 h

For `Cn1cc(CNCC2CCN(c3ncc(C(=O)NO)cn3)CC2)c2ccccc21` [Quisinostat], the IC50 (HDAC 10) was 4.52 nM.

For `CCC(CC)(c1ccc(C(=O)NCCCCC(=O)NO)cc1)c1ccc(OCC(O)C(C)(C)C)c(C)n1` (centres unmarked) [ZG-126], the “CYP24A1 induction (VDR hyperagonism)” value [1] is given as “displayed hyperagonism”, the “VDR agonist activity in vivo” value (VDR) is given as “displays VDR agonist activity in vivo” and the Prelp gene induction [2] is given as “most efficacious inducer”. The Tgm2 gene induction [2] was “most efficacious inducer”, the “logFC Btn1a1” value (B16–F10 cells) was 8.367 and the “logFC Cyp24a1” value (B16–F10 cells) was 8.537. The “logFC Elfn1” value (B16–F10 cells) was 7.8172, the “logFC Nccrp1” value (B16–F10 cells) was 7.976 and the “logFC Tnni1” value (B16–F10 cells) was 9.358. The “Cyp24a1 gene expression induction” value [3] was “more efficacious than 1,25D (and AM-193)”.
